# Measurements as given in patent US20140051685A1, “THERAPEUTIC TREATMENT FOR METABOLIC SYNDROME, TYPE 2 DIABETES, OBESITY OR PREDIABETES” (priority 2010, published 2014).
# Key:
# [1] = system: female ob/ob obese diabetic mice; test: Bromocriptine plus GBR 12909 in ob/ob mice; format: in vivo; details: BC 10 mg/kg, GBR 12909 20 mg/kg, daily 14 days, relative to vehicle, FIG. 10
# Experimental: The effects of adding GBR (a selective dopamine reuptake inhibitor) to bromocriptine (a dopamine D2 receptor agonist that can reduce central norepinephrine neuronal activity) in an effort to circumvent the impact of the D2 receptor agonist effect to reduce endogenous dopamine and to therefore improve metabolic disorders was examined in ob/ob mice treated with either vehicle, bromocriptine (BC) (10 mg/kg), GBR 12909 (20 mg/kg) or bromocriptine (10 mg/kg) plus GBR 12909 (20 mg/kg). Female ob/ob obese diabetic mice were fed standard chow and different groups of animals (n=5-7 group) were treated daily for 14 days with bromocriptine (to reduce norepinephrine neuronal activity) (10 mg/kg), GBR 12909 (to increase dopaminergic neuronal activity) (20 mg/kg) or with bromocriptine (10 mg/kg) plus GBR 12909 (20 mg/kg), or vehicle. […] BC had no effect on blood glucose level.
# [2] = system: mice fed a high fat diet for 20 weeks; test: Bromocriptine plus GBR 12909 in mice fed a high fat diet; format: in vivo; details: BC 5 mg/kg, GBR 12909 5 mg/kg
# Experimental: The effects of adding GBR (a selective dopamine reuptake inhibitor) to bromocriptine (a dopamine D2 receptor agonist that can reduce central norepinephrine neuronal activity) in an effort to circumvent the impact of the D2 receptor agonist effect to reduce endogenous dopamine and to therefore improve metabolic disorders was examined in mice fed a high fat diet for 20 weeks and then treated with either vehicle, bromocriptine (BC) (5 mg/kg), GBR 12909 (5 mg/kg) or bromocriptine (5 mg/kg) plus GBR 12909 (5 mg/kg). […] Again, increasing central dopaminergic neuronal activity and decreasing central norepinephrine neuronal activity simultaneously produces synergistic reductions in metabolic disorders. […] BC alone had no effect on plasma insulin level (FIG. 21).
compound,measurement,setting,value
CC(C)C[C@H]1C(=O)N2CCC[C@H]2[C@]2(O)O[C@](NC(=O)[C@@H]3C=C4c5cccc6[nH]c(Br)c(c56)C[C@H]4N(C)C3)(C(C)C)C(=O)N12 [bromocriptine],blood glucose level,[1],no effect
same,plasma insulin level,[2]; FIG. 21,no effect
same,HOMA-IR (insulin resistance),[2]; FIG. 22,no significant effect
